In patent US9017689B2, “Peptides for vaccine against birch allergy” (Circassia Limited, priority 2010, dated 2015):
Like-named read-outs stand apart in the source and are kept apart here. Ends that are not written are not given here.

Assay: Solubility screening in trehalose matrices pH 2.65 to 7.03;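 further: test items are peptides, each checked for solubility in every trehalose matrix, the matrices made up in distilled deionised water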
Assay type: physicochemical
Settings: for solubility: read-out: Solubility [mg per ml]
[1] = 10 mM sodium citrate and 260 mM trehalose dihydrate, pH 6.01
[2] = aqueous buffer, 10 mM sodium citrate and 260 mM trehalose dihydrate, pH 6.01
[3] = 2 mM HCl and 260 mM trehalose dihydrate, pH 2.65
[4] = 10 mM potassium dihydrogen phosphate and 260 mM trehalose dihydrate, pH 6.03
[5] = 10 mM potassium dihydrogen phosphate and 260 mM trehalose dihydrate, pH 7.03
[6] = 10 mM sodium citrate and 260 mM trehalose dihydrate, pH 3.01
[7] = 10 mM sodium citrate and 260 mM trehalose dihydrate, pH 3.99
[8] = 10 mM sodium citrate and 260 mM trehalose dihydrate, pH 5.02
[9] = aqueous buffer, 10 mM potassium dihydrogen phosphate and 260 mM trehalose dihydrate, pH 6.03
[10] = aqueous buffer, 10 mM potassium dihydrogen phosphate and 260 mM trehalose dihydrate, pH 7.03
[11] = aqueous buffer, 10 mM sodium citrate and 260 mM trehalose dihydrate, pH 3.01
[12] = aqueous buffer, 10 mM sodium citrate and 260 mM trehalose dihydrate, pH 3.99
[13] = aqueous buffer, 10 mM sodium citrate and 260 mM trehalose dihydrate, pH 5.02
[14] = water, 2 mM HCl and 260 mM trehalose dihydrate, pH 2.65

Sequence	Comments (solubility on preparation) [1]	Solubility [mg per ml 'as is'] [1]	Solubility [μmol per ml] [1]	Solubility after 24 Hours [1]	solubility [2]	Comments (solubility on preparation) [3]	Solubility [mg per ml 'as is'] [3]	Solubility [μmol per ml] [3]	Solubility after 24 Hours [3]	Commute (solubility on preparation) [4]	Solubility [mg per ml 'as is'] [4]	Solubility [μmol per ml] [4]	Solubility after 24 Hours [4]	Comments (solubility on preparation) [5]	Solubility [mg per ml 'as is'] [5]	Solubility [μmol per ml] [5]	Solubility after 24 Hours [5]	Comments (solubility on preparation) [6]	Solubility [mg per ml 'as is'] [6]	Solubility [μmol per ml] [6]	also measured
KEMGETLLRAVESYLLAHS [BIR09R]	Completely dissolved	4.92 mg per ml ‘as is’	1.993 μmol per ml	Completely dissolved	≥ 4280 µg/mL																
KEMGETLLRAVESYLLAHS [Bir09B]						Completely dissolved	12.20 mg per ml ‘as is’	4.942 μmol per ml	Completely dissolved	Completely dissolved in	0.36 mg per ml ‘as is’	0.147 μmol per ml	Precipitated out,	Completely dissolved	21.70 mg per ml ‘as is’	8.790 μmol per ml	Completely dissolved	Completely dissolved	11.62 mg per ml ‘as is’	4.707 μmol per ml	Solubility after 24 Hours [6]: Completely dissolved; Comments (solubility on preparation) [7]: Completely dissolved; Solubility [mg per ml 'as is'] [7]: 11.40 mg per ml ‘as is’; Solubility [μmol per ml] [7]: 4.618 μmol per ml; Solubility after 24 Hours [7]: Completely dissolved; Comments (solubility on preparation) [8]: Completely dissolved; Solubility [mg per ml 'as is'] [8]: 12.75 mg per ml ‘as is’; Solubility [μmol per ml] [8]: 5.165 μmol per ml; Solubility after 24 Hours [8]: Completely dissolved; solubility [9]: ≥ 315 µg/mL; solubility [10]: ≥ 18900 µg/mL; solubility [11]: ≥ 10100 µg/mL; solubility [12]: ≥ 9920 µg/mL; solubility [13]: ≥ 11100 µg/mL; solubility [14]: ≥ 10600 µg/mL
AKYMVIQGEPGRVIRGK [Bir12B]	Completely dissolved.	2.28 mg per ml ‘as is’	1.002 μmol per ml	Completely dissolved.	≥ 1910 µg/mL	Completely dissolved	10.22 mg per ml ‘as is’	4.490 μmol per ml	Completely dissolved	Completely dissolved	23.84 mg per ml ‘as is’	10.474 μmol per ml	Completely dissolved	Completely dissolved	20.62 mg per ml ‘as is’	9.060 μmol per ml	Completely dissolved	Completely dissolved	5.47 mg per ml ‘as is’	2.403 μmol per ml	Solubility after 24 Hours [6]: Completely dissolved; Comments (solubility on preparation) [7]: Completely dissolved; Solubility [mg per ml 'as is'] [7]: 10.32 mg per ml ‘as is’; Solubility [μmol per ml] [7]: 4.534 μmol per ml; Solubility after 24 Hours [7]: Completely dissolved; Comments (solubility on preparation) [8]: Completely dissolved; Solubility [mg per ml 'as is'] [8]: 5.84 mg per ml ‘as is’; Solubility [μmol per ml] [8]: 2.564 μmol per ml; Solubility after 24 Hours [8]: Completely dissolved; solubility [9]: ≥ 19900 µg/mL; solubility [10]: ≥ 17200 µg/mL; solubility [11]: ≥ 4570 µg/mL; solubility [12]: ≥ 8630 µg/mL; solubility [13]: ≥ 4880 µg/mL; solubility [14]: ≥ 8540 µg/mL
PAARMFKAFILEGDKLVPK [Bir02J]	Completely dissolved in	0.39 mg per ml ‘as is’	0.150 μmol per ml	Precipitated out,	≥ 320 µg/mL	Completely dissolved	23.60 mg per ml ‘as is’	9.069 μmol per ml	Completely dissolved	Completely dissolved	11.12 mg per ml ‘as is’	4.273 μmol per ml	Completely dissolved	Completely dissolved	12.31 mg per ml ‘as is’	4.730 μmol per ml	Completely dissolved	Completely dissolved in	0.38 mg per ml ‘as is’	0.147 μmol per ml	Solubility [mg per ml] [6]: 0.314 mg per ml; Solubility after 24 Hours [6]: Precipitated out,; Comments (solubility on preparation) [7]: Completely dissolved in; Solubility [mg per ml 'as is'] [7]: 0.39 mg per ml ‘as is’; Solubility [μmol per ml] [7]: 0.148 μmol per ml; Solubility after 24 Hours [7]: Precipitated out,; Comments (solubility on preparation) [8]: Completely dissolved in; Solubility [mg per ml 'as is'] [8]: 0.34 mg per ml ‘as is’; Solubility [μmol per ml] [8]: 0.132 μmol per ml; Solubility after 24 Hours [8]: Precipitated out,; solubility [9]: ≥ 9110 µg/mL; solubility [10]: ≥ 10100 µg/mL; solubility [12]: ≥ 315 µg/mL; solubility [13]: ≥ 281 µg/mL; solubility [14]: ≥ 19300 µg/mL
SNEIKIVATPEGGSILK [Bir07C]	Completely dissolved in	0.35 mg per ml ‘as is’	0.174 μmol per ml	Precipitated out,	≥ 306 µg/mL	Completely dissolved	11.48 mg per ml ‘as is’	5.747 μmol per ml	Completely dissolved	Completely dissolved in	0.42 mg per ml ‘as is’	0.208 μmol per ml	Precipitated out,	Completely dissolved	6.70 mg per ml ‘as is’	3.354 μmol per ml	Completely dissolved	Completely dissolved	1.30 mg per ml ‘as is’	0.653 μmol per ml	Solubility after 24 Hours [6]: Completely dissolved; Solubility [mg per ml 'as is'] [7]: 0.38 mg per ml ‘as is’; Solubility [μmol per ml] [7]: 0.188 μmol per ml; Comments (solubility on preparation) [8]: Completely dissolved; Solubility [mg per ml 'as is'] [8]: 0.86 mg per ml ‘as is’; Solubility [μmol per ml] [8]: 0.433 μmol per ml; Solubility after 24 Hours [8]: Completely dissolved; solubility [9]: ≥ 365 µg/mL; solubility [10]: ≥ 5890 µg/mL; solubility [11]: ≥ 1150 µg/mL; solubility [12]: ≥ 330 µg/mL; solubility [13]: ≥ 760 µg/mL; solubility [14]: ≥ 10100 µg/mL
PGTIKKISFPEGFPFKYV [Bir04]	Completely dissolved.	10.11 mg per ml ‘as is’	4.261 μmol per ml	Completely dissolved.	≥ 8760 µg/mL	Completely dissolved	20.50 mg per ml ‘as is’	8.639 μmol per ml	Completely dissolved	Completely dissolved	9.86 mg per ml ‘as is’	4.155 μmol per ml	Completely dissolved	Completely dissolved	21.50 mg per ml ‘as is’	9.061 μmol per ml	Completely dissolved	Completely dissolved	22.58 mg per ml ‘as is’	9.516 μmol per ml	Solubility after 24 Hours [6]: Completely dissolved; Comments (solubility on preparation) [7]: Completely dissolved; Solubility [mg per ml 'as is'] [7]: 20.36 mg per ml ‘as is’; Solubility [μmol per ml] [7]: 8.580 μmol per ml; Solubility after 24 Hours [7]: Completely dissolved; Comments (solubility on preparation) [8]: Completely dissolved; Solubility [mg per ml 'as is'] [8]: 21.52 mg per ml ‘as is’; Solubility [μmol per ml] [8]: 9.069 μmol per ml; Solubility after 24 Hours [8]: Completely dissolved; solubility [9]: ≥ 8540 µg/mL; solubility [10]: ≥ 18600 µg/mL; solubility [11]: ≥ 19600 µg/mL; solubility [12]: ≥ 17600 µg/mL; solubility [13]: ≥ 18600 µg/mL; solubility [14]: ≥ 17800 µg/mL
